Data: patent US20250154145A1, “OXER1 ANTAGONISTS AND USES THEREOF” (Fairhaven Pharmaceuticals Ins., priority 2021, published 2025)

system: neutrophils; assay: Neutrophil calcium flux assay (5-OXO-ETE-stimulated, Indo-1 fluorescence); assay type: cell-based; conditions: Neutrophil, 5-OXO-ETE-stimulated calcium flux
How it was run: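 Indo-1-loaded neutrophils (5×10^6 cells/ml, 30 min at 37 °C) in HBSS with Ca/Mg and HEPES, pre-incubated 5 min with antagonist or buffer. Stimulated with 5-OXO-ETE added at 200 nM (4× stock); fluorescence (ex 331/em 410 nm) read every 5 s for 30 cycles, expressed as net fluorescence.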

Row | Compound | IC50 [nM]
1 | Cn1c(CCCCOCc2cccc(Cl)c2)c(C(=O)N2CC[C@H](C(=O)O)C2)c2cc(C(F)(F)F)cnc21 [Compound I-183] | > 300
2 | CC(CC(=O)O)CC(=O)c1c(CCCCCCc2cccc(Cl)c2)n(C[C@@H](O)CO)c2ncc(C#N)cc12 (stereo partly drawn) [Compound I-284] | < 100
3 | C[C@H](CC(=O)O)CC(=O)c1c(CCOCCNc2cccc(Cl)c2)n(C)c2ccc(Cl)cc12 [Compound I-142] | < 100
4 | C[C@H](CC(=O)O)CC(=O)c1c(CCCCO[C@H](C)c2ccccc2)n(C)c2ncc(C#N)cc12 [Compound I-434] | < 100
5 | CC(CC(=O)O)CC(=O)c1c(CCCCOCc2cccc(C#N)c2)n(C)c2ncc(C(F)(F)F)cc12 (stereo not drawn) [Compound I-417] | 100 to 300
6 | CC(CN(C)C(=O)c1c(CCCCOCc2cccc(Cl)c2)n(C)c2ncc(C#N)cc12)C(=O)O (stereo not drawn) [Compound I-244] | > 300
7 | C[C@H](CC(=O)O)CC(=O)c1c(CCCCCOc2cnccn2)n(C)c2ccc(Cl)cc12 [Compound I-132] | > 300
8 | Cn1c(CCCCCCC#CC2CC(F)(F)C2)c(C(=O)N2CC[C@H](C(=O)O)C2)c2cc(Br)cnc21 [Compound I-345] | 100 to 300
9 | C[C@@H](CC(=O)c1c(CCCCOCc2cccc(Cl)c2)n(C)c2ncc(Cl)cc12)Cc1nnn[nH]1 [Compound I-355] | < 100
10 | C[C@@H](CC(=O)O)CC(=O)c1c(CCCCCCC#CC2CC(F)(F)C2)n(C)c2ncc(C#N)cc12 [Compound I-329] | > 300
11 | C[C@H](CC(=O)O)CC(=O)c1c(CCCCCCc2cccc(Cl)c2)n(CCO)c2ncc(C#N)cc12 [Compound I-279] | < 100
12 | [2H]C([2H])([2H])n1c(CCCCOCc2ccccc2)c(C(=O)CC(C)CC(=O)O)c2cc(C#N)cnc21 (stereo not drawn) [Compound I-420] | < 100
13 | CC(CC(=O)O)CC(=O)c1c2cc(C#N)cnc2n(C)c1[C@H]1CC[C@H](OCc2cccc(Cl)c2)CC1 (stereo partly drawn) [Compound I-367] | > 300
14 | C[C@H](CC(=O)O)CC(=O)c1c(CCOCCNc2cccc(F)c2)n(C)c2ncc(C#N)cc12 [Compound I-246] | 100 to 300
15 | C[C@H](CC(=O)O)CC(=O)c1c(CCCCCCc2ccncc2)n(C)c2ccc(Cl)cc12 [Compound I-55] | < 100
16 | CC(C)[C@H](NC(=O)C[C@@H](C)CC(=O)c1c(CCCCOCc2ccccc2)n(C)c2ncc(C#N)cc12)C(=O)O [Compound I-466] | > 300
17 | CC(CC(=O)O)CC(=O)c1c(CCCCOCc2cccc(C#N)c2)n(C)c2ncccc12 (stereo not drawn) [Compound I-392] | 100 to 300
18 | C[C@H](CC(=O)O)CC(=O)c1c(CCCCOCc2cccc(C#N)c2)n(C)c2ncc(Cl)cc12 [Compound I-212] | < 100
19 | C[C@H](CC(N)=O)CC(=O)c1c(CCCCOCc2cccc(Cl)c2)n(C)c2ncc(Cl)cc12 [Compound I-356] | > 300
20 | CC(CC(=O)O)CC(=O)c1c(CCCCCCc2cccc(Cl)c2)n(CCN(C)C)c2ncc(C#N)cc12 (stereo not drawn) [Compound I-281] | > 300
21 | C[C@H](CC(=O)O)CC(=O)c1c(CCCCCCc2cccc(Cl)c2)n(C)c2ncc(Cl)cc12 [Compound I-24] | > 300
22 | Cn1c(CCCCCCc2cccc(Cl)c2)c(C(=O)N2CCC[C@H](C(=O)O)C2)c2cc(Cl)ccc21 [Compound I-155] | 100 to 300
23 | C[C@H](CC(=O)O)CC(=O)c1c(CCCOCCC#CC2CC(F)(F)C2)n(C)c2ccc(Cl)cc12 [Compound I-325] | < 100

Row | Compound | IC50 [nM]
24 | C[C@@H](CC(=O)O)CC(=O)c1c(CCCCOCc2cccc(C#N)c2)n(C)c2cnccc12 [Compound I-395] | > 300
25 | Cn1c(CCCCCCC#CC2CC(F)(F)C2)c(C(=O)N2CC[C@H](C(=O)N[C@@H](CCC(N)=O)C(=O)O)C2)c2cc(C#N)cnc21 [Compound I-463] | > 300
26 | C[C@@H](CC(=O)O)CC(=O)c1c(CCCCO[C@@H](C)c2ccccc2)n(C)c2ncc(C#N)cc12 [Compound I-431] | > 300
27 | Cn1c(CCCOCCc2cccc(Cl)c2)c(C(=O)N2CC[C@H](C(=O)O)C2)c2cc(Cl)cnc21 [Compound I-174] | > 300
28 | CC(CC(=O)O)CC(=O)c1c(CCCCOCc2cccc(Cl)c2)n(C)c2nccc(Cl)c12 (stereo not drawn) [Compound I-379] | > 300
29 | CCCCCCc1cc2ccc(Cl)cc2n1C(=O)C[C@H](C)CC(=O)O [Compound I-12] | > 300
30 | C[C@H](CC#N)CC(=O)c1c(CCCCOCc2cccc(Cl)c2)n(C)c2ncc(Cl)cc12 [Compound I-357] | > 300
31 | CC(CC(=O)O)CC(=O)c1c(C[C@H]2CC[C@H](OCc3cccc(Cl)c3)CC2)n(C)c2ncc(C#N)cc12 (stereo partly drawn) [Compound I-402] | 100 to 300
32 | Cn1cc(-c2cccc(Cl)c2)c(C(=O)N2CC[C@H](C(=O)O)C2)c1CCCCOCc1cccc(Cl)c1 [Compound I-167] | > 300
33 | C[C@H](CC(=O)O)CC(=O)c1c(CCCCCOCc2cccc(Cl)c2)n(C)c2ccc(C#N)cc12 [Compound I-425] | 100 to 300
34 | Cn1c(CCCCCCC#CC2CC(F)(F)C2)c(C(=O)N2CC[C@H](C(=O)NS(C)(=O)=O)C2)c2cc(C#N)cnc21 [Compound I-363] | > 300
35 | C[C@H](CC(=O)O)CC(=O)c1c(CCCCOCc2cc(Cl)cc(Cl)c2)n(C)c2ncc(C#N)cc12 [Compound I-385] | < 100
36 | CC(CC(=O)O)CC(=O)c1c(CCCCOCc2cccc(C(=O)N(C)C)c2)n(C)c2ncc(C#N)cc12 (stereo not drawn) [Compound I-370] | < 100
37 | CC(CC(=O)O)CC(=O)c1c(CCCCOCc2ccc(F)c(Cl)c2)n(C)c2ncc(C#N)cc12 (stereo not drawn) [Compound I-291] | < 100
38 | C[C@@H](CC(=O)c1c(CCCCOCc2ccccc2)n(C)c2ncc(C#N)cc12)Cc1nnn[nH]1 [Compound I-359] | < 100
39 | C[C@@H](CC(=O)O)CC(=O)c1c(CCCCOCc2cccc(C#N)c2)n(C)c2ccncc12 [Compound I-397] | > 300
40 | COc1cccc(C(O)CCCCCc2c(C(=O)CC(C)CC(=O)O)c3cc(C#N)cnc3n2C)c1 (stereo not drawn) [Compound I-302] | < 100
41 | C[C@H](CC(=O)O)CC(=O)c1c(CCCCOCc2cccc(Cl)c2)[nH]c2ccc(C#N)cc12 [Compound I-382] | < 100
42 | CC(CC(=O)O)CC(=O)c1c(C[C@H]2CC[C@@H](OCc3cccc(Cl)c3)CC2)n(C)c2ncc(C#N)cc12 (stereo partly drawn) [Compound I-399] | > 300
43 | Cn1c(CCCCCCc2cccc(Cl)c2)c(C(=O)N2CC[C@H](C(=O)O)C2)c2cc(Cl)ccc21 [Compound I-118] | < 100
44 | CC(CC(=O)O)CC(=O)c1c(CCCCCCC#CCC(F)(F)F)n(C)c2ccc(Cl)cc12 (stereo not drawn) [Compound I-111] | 100 to 300
45 | Cn1c(CCCCOCc2ccccc2)c(C(=O)N2CC[C@H](C(=O)O)C2)c2cc(C#N)cnc21 [Compound I-178] | > 300
46 | C[C@H](CC(=O)O)N(C)C(=O)c1c(CCCCOCc2cccc(Cl)c2)n(C)c2ncc(C#N)cc12 [Compound I-240] | > 300

Row | Compound | IC50 [nM]
47 | Cn1c(CCCCCCc2cccc(Cl)c2)c(C(=O)N2CCC[C@H]2CC(=O)O)c2cc(Cl)ccc21 [Compound I-121] | > 300
48 | C[C@@H](CC(=O)NO)CC(=O)c1c(CCCCCCc2cccc(Cl)c2)n(C)c2ccc(Cl)cc12 [Compound I-18] | > 300
49 | CC[C@H](CC(=O)O)CC(=O)c1c(CCCCOCc2ccccc2)n(C)c2ncc(C#N)cc12 [Compound I-438] | > 300
50 | CC(CC(=O)O)CC(=O)c1c(CCCCCCC#CC2COC2)n(C)c2ccc(Cl)cc12 (stereo not drawn) [Compound I-321] | < 100
51 | CC(C)COCCc1c(C(=O)C[C@H](C)CC(=O)O)c2cc(Cl)ccc2n1C [Compound I-72] | > 300
52 | C[C@H](CC(=O)O)CC(=O)c1c(CCCCOCc2cccc(C#N)c2)n(C)c2c(F)cc(Cl)cc12 [Compound I-415] | > 300
53 | CC(CC(=O)O)CC(=O)c1c(CCCCCC(O)c2ccc(F)cc2)n(C)c2ncc(Cl)cc12 (stereo not drawn) [Compound I-218] | > 300
54 | Cn1c(CCCCCCC#CC2CC(F)(F)C2)c(C(=O)N2CC[C@H](C(=O)O)C2)c2cc(C#N)cnc21 [Compound I-340] | < 100
55 | C[C@@H](CC(=O)O)CC(=O)c1c(CCCCOCc2cc(Cl)cc(Cl)c2)n(C)c2ncc(C#N)cc12 [Compound I-386] | 100 to 300
56 | CC(CC(=O)O)CC(=O)c1c(CCCCOCc2ccc(Cl)cc2)n(C)c2ncc(C#N)cc12 (stereo not drawn) [Compound I-290] | 100 to 300
57 | CC(CC(=O)O)CC(=O)c1c(CCCCOCc2cncnc2)n(C)c2ccc(C#N)cc12 (stereo not drawn) [Compound I-393] | > 300
58 | Cn1c(CCCCCCc2cccc(Cl)c2)c(C(=O)N2CC(CC(=O)O)C2)c2cc(Cl)cnc21 [Compound I-154] | > 300
59 | C[C@H](CC(=O)O)N(C)C(=O)c1c(CCCCCCc2cccc(Cl)c2)n(C)c2ccc(Cl)cc12 [Compound I-239] | > 300
60 | Cn1c(CCCCCCc2cccc(Cl)c2)c(C(=O)N2CC(CC(=O)O)C2)c2cc(Cl)ccc21 [Compound I-152] | > 300
61 | Cn1c(CCCCCCc2cccc(Cl)c2)c(C(=O)N2CCC(C)(C(=O)O)C2)c2cc(Cl)ccc21 (stereo not drawn) [Compound I-157] | > 300
62 | Cn1c(CCCCCCc2cccc(Cl)c2)c(C(=O)N2CCC[C@@H]2CC(=O)O)c2cc(Cl)ccc21 [Compound I-119] | > 300
63 | C[C@H](CC(=O)O)CC(=O)c1c(CCCCCCC#CC2COC2)n(C)c2ccc(Cl)cc12 [Compound I-332] | < 100
64 | C[C@H](CC(=O)O)CC(=O)c1c(CCCCCCC#CC2CC(F)(F)C2)n(C)c2ncc(Cl)cc12 [Compound I-320] | < 100
65 | C[C@H](CC(=O)O)CC(=O)c1c(CCCCC(=O)Nc2cccc(Cl)c2)n(C)c2ccc(Cl)cc12 [Compound I-80] | > 300
66 | CCC#CCCCCCCc1c(C(=O)C[C@H](C)CC(=O)O)c2cc(Cl)ccc2n1C [Compound I-116] | < 100
67 | C[C@H](CC(=O)O)CC(=O)c1c(CCCCCNc2cccnc2)n(C)c2ncc(Cl)cc12 [Compound I-140] | > 300
68 | CC(=O)Nc1cccc(COCCCCc2c(C(=O)CC(C)CC(=O)O)c3cc(C#N)cnc3n2C)c1 (stereo not drawn) [Compound I-298] | 100 to 300
69 | CC(CNC(=O)c1c(CCCCOCc2cccc(Cl)c2)n(C)c2ncc(C(N)=O)cc12)C(=O)O (stereo not drawn) [Compound I-287] | > 300
